Measured values: patent publication US5126258A (priority 1988, dated 1992)

Legend:
[1] = Spontaneous (uncatalyzed, background) hydrolysis; format: physicochemical; design: key to Spon. (spontaneous hydrolysis), symbol: --: No hydrolysis observed; conditions: pH 8.0
Method: The practical range of pH for the assay is limited by the rapid spontaneous rate of hydrolysis of an ester Compound 5 above pH 8.0. Initially, the ester was used at a concentration that was about four-fold greater than that of the protein, and the mixture was incubated at pH 7.2 for 10 minutes. Any change in fluorescence above background was noted.
The lack of spectroscopic distinction between such esters and their hydrolysis products recommended a chromatographic analysis of the process. Referring to FIG. 3, a mixture of Compound 7 (5 uM) and the monoclonal antibody from hybridoma P3 6D4 (0.1 uM) in phosphate buffer (50 mM, pH 8.0) was analyzed over time by high performance liquid chromatography (HPLC). The accelerated hydrolysis of the ester was apparent from the decrease of its peak and the concurrent increase in two new peaks that correspond with the expected products. Under these conditions, the ester is completely consumed in 60-80 minutes during which time the background rate accounts for about 12 to 16 percent hydrolysis. The chromatographic profile is the same as that produced by treatment with hog liver esterase.
^c The rate constants were determined spectrophotometrically (at 245
nm) by measuring initial rates at five concentrations of ester.
(§1) ^1 Preliminary initial hydrolyses shown as the percentage of admixed
(§2) reactant ligand consumed for catalyzed and spontaneous hydrolyses. "--" =
(§3) No hydrolysis observed. "NT" = Not tried. All reactions were carried out
(§4) at pH 8.0 in a 50 mM phosphate buffer unless otherwise noted. Hydrolytic
(§5) percentages were determined by HPLC using a Hitachi model 655A12 liquid
(§6) chromatograph with a C18 Vydac 201TP54 column, except as noted below.
(§7) Mixtures of acetonitrile a nd water containing 0.1 percent trichloroaceti
(§8) acid [28:72-50:50 (v/v)] were used as elutant. Hydrolyses of Compounds 5
(§9) and 20 were assayed using fluorescence data.
(§10) ^5 Spontaneous hydrolytic percentages for the time period indicated.
Reaction kinetics were studied using three reactant ligands as substrates for monoclonal receptors 37G2 and 22F5. Data from initial rates were consistent with Michaelis-Menten reaction mechanism for a usual enzyme-substrate system. Initial rates were followed using at 271 nm using a U.V.-visible spectorphotometer for Compound 17, and a fluorescence spectrometer for Compounds 5 and 20, using an excitation wavelength of 355 nm and an emission wavelength of 455 nm for both compounds.

21G2 = experiment: Hydrolysis of reactant ligands by receptor 21G2; format: biochemical, mouse; design: key to hydrolysis by 21G2, symbol: --: No hydrolysis observed; conditions: pH 8.0; 19: 2/5 uM, 21: 5/10 uM receptor/ligand
Method: as §1, §2, §3, §4, §5, §6, §7, §8, §9
(§11) ^2 Concentrations of receptor molecules (Rec.) and reactant ligands
(§12) (Lig.) in micromolar units, presuming a molecular weight of 150,000
(§13) daltons for each receptor molecule.
(§14) ^3 Reactant ligand (Lig.) used as substrate.
(§15) ^4 Time in hours that the reaction was permitted to take place.
as §10
(§16) ^6 Reaction carried out at pH 7.2 in a 50 mM phosphate buffer.

7E5 = experiment: Hydrolysis of reactant ligands by receptor 7E5; format: biochemical, mouse; design: key to hydrolysis by 7E5, symbol: --: No hydrolysis observed; conditions: pH 8.0; 19: 2/5 uM, 21: 5/10 uM receptor/ligand
Method: as §1, §2, §3, §4, §5, §6, §7, §8, §9, §11, §12, §13, §14, §15, §10, §16

37G2 = experiment: Hydrolysis of reactant ligands by receptor 37G2; format: biochemical, mouse; design: key to hydrolysis by 37G2, symbol: --: No hydrolysis observed; conditions: pH 8.0; 19: 2/5 uM, 21: 5/10 uM receptor/ligand
Method: as §1, §2, §3, §4, §5, §6, §7, §8, §9, §11, §12, §13, §14, §15, §10, §16

13E10 = experiment: Hydrolysis of reactant ligands by receptor 13E10; format: biochemical, mouse; design: key to hydrolysis by 13E10, symbol: --: No hydrolysis observed; conditions: pH 8.0; 19: 2/5 uM, 21: 5/10 uM receptor/ligand
Method: as §1, §2, §3, §4, §5, §6, §7, §8, §9, §11, §12, §13, §14, §15, §10, §16

1209 = experiment: Hydrolysis of reactant ligands by receptor 12C9 (column head prints 1209); format: biochemical, mouse; design: key to hydrolysis by 1209, symbol: --: No hydrolysis observed; conditions: pH 8.0; 19: 2/5 uM, 21: 5/10 uM receptor/ligand
Method: as §1, §2, §3, §4, §5, §6, §7, §8, §9, §11, §12, §13, §14, §15, §10, §16

44A2 = experiment: Hydrolysis of reactant ligands by receptor 44A2; format: biochemical, mouse; design: key to hydrolysis by 44A2, symbol: --: No hydrolysis observed; conditions: pH 8.0; 19: 2/5 uM, 21: 5/10 uM receptor/ligand
Method: as §1, §2, §3, §4, §5, §6, §7, §8, §9, §11, §12, §13, §14, §15, §10, §16

17G8 = experiment: Hydrolysis of reactant ligands by receptor 17G8; format: biochemical, mouse; design: key to hydrolysis by 17G8, symbol: --: No hydrolysis observed; conditions: pH 8.0; 19: 2/5 uM, 21: 5/10 uM receptor/ligand
Method: as §1, §2, §3, §4, §5, §6, §7, §8, §9, §11, §12, §13, §14, §15, §10, §16

22F5 = experiment: Hydrolysis of reactant ligands by receptor 22F5; format: biochemical, mouse; design: key to hydrolysis by 22F5, symbol: --: No hydrolysis observed; conditions: pH 8.0; 19: 2/5 uM, 21: 5/10 uM receptor/ligand
Method: as §1, §2, §3, §4, §5, §6, §7, §8, §9, §11, §12, §13, §14, §15, §10, §16

[2] = system: eight monoclonal receptors 21G2, 7E5, 37G2, 13E10, 12C9, 44A2, 17G8 and 22F5; experiment: Catalyzed hydrolysis of reactant ligands by the eight QPN1 monoclonal receptors, summary; format: biochemical, mouse; conditions: pH 8.0
Method: Mice were hyperimmunized with the Compound 13-KLH conjugate over a three to four week time period. Sera were assayed in an ELISA using a Compound 13-BSA conjugate bound to microtiter plate wells as the solid-phase antigen. Cloned hybridomas were also screened using that ELISA assay.
Each of those catalyses could be inhibited by an appropriate analog-ligand. Thus, a relatively high percentage of induced monoclonal receptors was capable of catalyzing an esterolytic reaction. The reason for this relatively high percentage of useful receptors being induced is unknown, but could be due to the presence of phosphonamidate group nitrogen atom, as compared to a phosphonate oxygen atom, or to the quinoline nucleus of the analog-ligand. Those eight catalytic monoclonal receptors and the hybridomas that secrete them are identified by the laboratory designations "QPN1 7E5", "QPN1 12C9", "QPN1 13E10", "QPN1 17G8", "QPN1 21G2", "QPN1 22F5", "QPN1 37G2" and QPN1 44A2. The prefix "QPNI" is sometimes omitted herein when discussing these hybridomas and receptors.
Amide cleavage for Compounds 14 and 15 was assayed by analyzing for the production of free aminoquinaldine or aminonaphthalene by measuring the increase in the azo dye that results from derivatizing the free aminoquinaldine or aminonapthalene with a diazotization reagent.
Catalysis reactions were conducted by preparing a reaction admixture of 100 microliters (ul) total volume containing 5 micromolar (uM) monoclonal antibody, 50-75 uM amide reactant ligand substrate and a buffer described hereinafter. The buffer included in the above admixture varied depending upon the pH utilized as follows: pH 5, 10 […] sodium acetate, 10 mM sodium chloride; pH 7.2, 10 mM sodium phosphate, 0.15 molar (M) sodium chloride; pH 8.0; 50 mM sodium phosphate. The amide-containing substrates screened in this assay were added to the above admixture in 1 ul of a 100-fold concentrated stock solution of dimethyl formamide (DMF). Monoclonal antibody was added to the above admixture from a concentrated stock solution. The resulting admixture was placed into the well of a 96 well flat bottom microtiter plate (Costar, Cambridge, Mass.) and maintained in a moist vapor environment chamber at 23 degrees C. The production of aminoquinaldine or aminonaphthalene was then assayed as described below after 2,3,5, or 6 days.
The aminoquinaldine or aminonapthalene product produced by the catalyzed reaction was measured by first admixing 20 ul of 5M HCl, 80 ul acetone and 10 ul 0.5% (w/v) sodium nitrite to the reaction admixture to form a second admixture and maintaining that second admixture for 3 minutes at room temperature. Thereafter, 10 ul 2.5% (w/v) ammonium sulfamate was added to form a third admixture that was maintained for 2 minutes at room temperature. A still further 10 ul of 0.5% (w/v) N-(1-napthyl)ethylenediamine dihydrochloride was added to form a fourth admixture that was then maintained for 15 minutes at room temperature. Thereafter the resulting azo dye present in the fourth admixture was measured by absorbance spectroscopy at 540 nanometers (nm) for aminoquinaldine using a Model EL 309 Automated Microplate Reader (Bio-Tek Instruments, Winooski, Vt.).

hydrolysis by 21G2, symbol (21G2): --
hydrolysis by 7E5, symbol (7E5): --
hydrolysis by 37G2, symbol (37G2): --
hydrolysis by 13E10, symbol (13E10): --
hydrolysis by 1209, symbol 1209: --
hydrolysis by 44A2, symbol (44A2): --
hydrolysis by 17G8, symbol (17G8): --
hydrolysis by 22F5, symbol (22F5): --
Compound: CC(=O)Nc1ccc(CC(=O)Nc2cccc3ccc(C)nc23)cc1 [Compound 14]
Spon. (spontaneous hydrolysis), symbol [1]: --
receptors (of eight) that catalyzed hydrolysis of the compound [2]: none of the receptors catalyzed hydrolysis
